Data set [1] can be described thus: Turbidity of test solutions. In kind it is physicochemical. The note with it: purified water (reference), 0.05%. As to the method:
(§1) 1:1 mol/mol stoichiometry complexes were prepared for the experiment. Nicotinic acid/alpha-CD complex was prepared by dissolving 11.22 g nicotinic acid and 98.63 g alpha-CD (89.66 g on dry basis) in 700 ml purified water. Nicotinamide/alpha-CD complex was prepared by dissolving 5.57 g nicotinamide and 49.3 g alpha-CD (44.4 g on dry basis) in 350 ml purified water and L-arginine/alpha-CD complex was prepared by dissolving 15.18 g L-arginine and 94.26 g alpha-CD (85.69 g on dry basis) in 700 ml purified water. Further, for all the three complexes, the liquid was frozen in dry ice bath and lyophilized. The dry lyophilizate was ground and sieved.
(§2) Clarity, pH, conductivity, density, viscosity, turbidity, surface tension and osmolality were determined in solutions prepared with purified water. […]

A short description of data set [2]: Visual inspection (clarity) of test solutions. In kind it is physicochemical. The conditions noted are these: purified water. As to the method:
as §1, §2

Data set [3] in a line: Surface tension of test solutions. In kind it is physicochemical. The note with it: purified water. As to the method: as §1, §2
For data set [4], the system named is Wheat seeds (Triticum aestivum). Put plainly: Wheat seed germination. In kind it is in vivo. The conditions noted are these: 0.5% w/w in USA I water. How it is done: Wheat seeds (Triticum aestivum) were germinated using USA I, USA II, and BP I waters described for Example 2. Germination rate using un-supplemented (control) water was compared to that with the same water variously supplemented with a cyclodextrin component, and/or a bioactive agent, as an active component of cellular hydration. For each condition, ten seeds were placed in continuous water contact in a Petri-type dish kept at 25 C in 12 hr light/dark cycles. Photometric images were recorded on days 1 to 6 after seeding. The percentage of seeds germinated was calculated and compared as a function of time and of the applied additive concentrations.
Water samples for seed germination were used alone with no additive, or containing cyclodextrins, or containing clathrate inclusion complexes of cyclodextrin with L-arginine or with nicotinamide (both obtained from Sigma Chemical Co.; St. Louis, MO), or with L-carnitine (from Lonza AG; Switzerland). […] Additive solutions were prepared fresh on the day of germination start.
Parent cyclodextrins α-cyclodextrin (ACD), β-cyclodextrin (BCD), and γ-cyclodextrin (GCD), were obtained from Wacker Chemie (Munich, Germany). The following derivatized cyclodextrins were obtained from Cyclolab Ltd. (Budapest, Hungary): hydroxypropylated-beta-cyclodextrin (DS-3)(HPBCD), carboxymethylated-β-cyclodextrin (DS-3.5)(CMBCD), 2-hydroxy-3-N,N,N-trimethylamino)propyl-β-cyclodextrin chloride (DS-3.6)(QABCD).
Germination kinetics in control and additive-modified water under identical conditions were quantified as the percentage of the seeds having a sprout. Each determination consisted of 100 seeds for each parameter. Results are reported in Table 5, below, and in FIGS. 11-13. • A) Cyclodextrin/L-Arg Inclusion Complex Increases Seed Germination.

The test system of a further data set is C. elegans. Put plainly: C. elegans lifespan Test B (Example 6). Type of data set: in vivo. How it is done:
C. elegans study performed for the present disclosure is a follow-up and repetition of the observations carried out earlier (referred as Test A here). The results of the current C. elegans study (Test B) were recorded with higher number of animals compared to the Test A (50 worms per treated groups versus 130 worms per groups). Nematodes were maintained and propagated on Nematode Growth Medium—(NGM) containing plates and fed with Escherichia coli OP50 bacteria. The C. elegans strain used in this study is Bristol (N2) as wild-type. FIG. 21, illustrates the lifespan of control and alpha-cyclodextrin-treated worms. The control C. elegans lived on a medium made with tap water. The treated worms were maintained on culture media made with 0.1% alpha-cyclodextrin, 0.1% alpha-CD/nicotinic acid and 0.1% alpha-CD/arginine complex containing tap water.

The next data set addresses T1, human aquaporin 1 (AQP1) (Homo sapiens, UniProt P29972).
T1 construct: host or cells: Xenopus laevis oocytes (mRNA injection)
T1 sequence (P29972 1-269): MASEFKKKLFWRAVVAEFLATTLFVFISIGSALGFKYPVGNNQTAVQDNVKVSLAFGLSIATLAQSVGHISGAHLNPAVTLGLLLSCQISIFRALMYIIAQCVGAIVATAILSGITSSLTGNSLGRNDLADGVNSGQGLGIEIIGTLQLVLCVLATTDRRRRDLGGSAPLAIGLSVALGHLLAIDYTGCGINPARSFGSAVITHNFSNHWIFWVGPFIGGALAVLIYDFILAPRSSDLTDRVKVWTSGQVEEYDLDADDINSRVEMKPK
Put plainly: Xenopus oocyte swelling assay, osmotic water permeability. In kind it is cell-based. The note with it: 0.05% in water. How it is done:
They were then kept on ice for another 15 min before ovarectomy was performed. Ovaries were incubated in collagenase (Worthington Type II, 10 mg/ml) in calcium free Barth's solution (CFBS, NaCl 88 mM, KCl 1 mM, MgSO4 0.8 mM, TRIS-HCl 5 mM, NaHCO3 2.4 mM). Following defolliculation, oocytes were rinsed in normal Barth's solution (MBS, NaCl 88 mM, KCl 1 mM, CaCl2 0.4 mM, Ca(NO3)2 0.33 mM, MgSO4 0.8 mM, TRIS-HCl 5 mM, NaHCO3 2.4 mM) before they were transferred to 96-well plates. For nuclear injection of the different DNA's into the oocytes and for cytoplasmic injection of the mRNA encoding human Aquaporin-1 channels into the oocytes, the Roboocyte automated injection and recording system was used. (Human Aquaporine 1 cDNA cloned in expressing vector pGEM-T were purchased from Sino Biological Inc. Transcription to AQP1 mRNA was performed by an Ecocyte cooperation partner lab.) The mRNA injection volume was in the range 20-50 nl at a mRNA concentration of 100 ng/μl. After two to three days of incubation in Barth's solution supplemented with Gentamycin, water uptake of the Xenopus Oocytes through AQP1 channels was tested in a swelling assay using video microscopy. […] Normal frog ringer (NFR, NaCl 90 mM, KCl 2 mM, CaCl2 2 mM, MgCl2 1 mM, HEPES 5 mM, osmolarity 200 mOsm/1) was used as control solution and was prepared freshly on the day of the experiments. […]

The structures appear in SMILES notation.

Take `OC[C@H]1O[C@@H]2O[C@H]3[C@H](O)[C@@H](O)[C@@H](O[C@H]4[C@H](O)[C@@H](O)[C@@H](O[C@H]5[C@H](O)[C@@H](O)[C@@H](O[C@H]6[C@H](O)[C@@H](O)[C@@H](O[C@H]7[C@H](O)[C@@H](O)[C@@H](O[C@H]1[C@H](O)[C@H]2O)O[C@@H]7CO)O[C@@H]6CO)O[C@@H]5CO)O[C@@H]4CO)O[C@@H]3CO` [Alpha Cyclodextrin, α-cyclodextrin]: the “Turbidity (Abs, λ = 410 nm)” value in data set [1] is on record as 0.003 Abs. In addition, the “Visual Inspection” value in data set [2] (0.05%), in data set [2] (0.10%), in data set [2] (1.00%) and in data set [2] (2.00%) was “clear” each time. The “Surface Tension” value in data set [3] (0.05%) is recorded as 72 mN · m^−1; in data set [3] (0.10%), 72 mN · m^−1; in data set [3] (1.00%), 72 mN · m^−1; in data set [3] (2.00%), 73 mN · m^−1. Moreover, the “wheat seed germination, percentage of the seeds having a sprout” value was determined as 0% in data set [4] (day 0); 11% in data set [4] (day 1); 18% in data set [4] (day 2); 68% in data set [4] (day 3); 92% in data set [4] (day 4). Further, the “Fraction of worms alive” value in the data set with C. elegans (Test B, day 15, 0.1%, 130 worms per group, tap water media) is 20%. For the same compound, the effect on lifespan entry with C. elegans (all three studied concentrations (0.05, 0.1, 0.5%)) was “significant”. In the data set with C. elegans (control animals 12.33 days), this compound displayed an average lifespan of 13.25 days. In addition, on human aquaporin 1 (AQP1), the “water permeation of human-aquaporin-expressed oocytes” value is “highest water permeation”.
